Several values for one entry are separate records, joined by “and”; a condition that tells them apart may be missing. Equal entries are not always repeated.
Target: p38/MK2 (Homo sapiens, UniProt Q16539)
Experiment: p38α/MK2 cascade assay (phosphorylation of Hsp27 peptide, Caliper LabChip 3000)
Format: biochemical
Details: Hsp27 peptide 1 μM, MgATP 10 μM, two values printed in one cell
Method: The novel, MK2 substrate-selective inhibitory mechanism of compounds is evaluated in enzyme assays comparing inhibitor potency in blocking p38/MK2 versus p38/PRAK induced phosphorylation of an HSP-27 derived peptide substrate. The ability of compounds to inhibit activated phospho-p38α is evaluated using a p38α/MK2 and a p38α/PRAK cascade assay format. The kinase activity of p38α is determined by its ability to phosphorylate GST-MK2 or GST-PRAK. Activation of MK2 or PRAK by p38α is quantitated by measuring the phosphorylation of a fluorescently-labeled, MK2 specific peptide substrate, Hsp27 peptide (FITC-KKKALSRQLSVAA). The phosphorylation of the Hsp27 peptide is quantified using the Caliper LabChip 3000. Kinase reactions are carried out in a 384-well plate (Matrical, MP101-1-PP) in 20 mM HEPES pH 7.5, 10 mM MgCl2, 0.0005% Tween-20, 0.01% BSA, 1 mM DTT, and 2% DMSO. […] The p38α compound inhibitory potency is quantitated from dose-response IC50 values or Ki values from p38α/MK2 cascade assays while the substrate selectivity is calculated as a ratio of p38α/PRAK:p38α/MK2 IC50 values. Species compounds of Formula I, described hereinabove, evaluated in this assay, are expected to provide a therapeutic benefit in the treatment of p38 kinase mediated diseases, such as autoimmune diseases and lymphoma.

Sequence of p38/MK2 (Q16539 whole entry): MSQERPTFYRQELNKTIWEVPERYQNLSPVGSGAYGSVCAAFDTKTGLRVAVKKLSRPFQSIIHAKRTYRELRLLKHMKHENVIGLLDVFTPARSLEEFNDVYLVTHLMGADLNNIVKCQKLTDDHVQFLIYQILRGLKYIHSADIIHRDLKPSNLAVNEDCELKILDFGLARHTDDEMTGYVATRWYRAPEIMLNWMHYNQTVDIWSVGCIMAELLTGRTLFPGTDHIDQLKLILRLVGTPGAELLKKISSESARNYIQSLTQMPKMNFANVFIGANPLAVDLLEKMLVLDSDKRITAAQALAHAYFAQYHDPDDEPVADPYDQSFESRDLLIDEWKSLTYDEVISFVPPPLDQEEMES

**Q.** For `CC(C)(C)c1nccc(-c2c[nH]c3cc(Cl)c(C(=O)N4CCC(Cc5ccc(F)cc5)CC4)cc23)n1` [Example 57, (3-(2-tert-Butyl-pyrimidin-4-yl)-6-chloro-1H-indol-5-yl)-(4-(4-fluorobenzyl)-piperidin-1-yl)-methanone], which IC50 is on record?
**A.** Its IC50 is 2.89 µM and 3.86 µM.
